Reference: patent publication US20100105664A1, “ORGANIC COMPOUNDS” (priority 2006, published 2010)
Structures can show the parent of a compound that is named as a salt.

Target: T1, human MK2 (Homo sapiens, UniProt P49137)
T1 construct: made in house
Test: MAPKAPK2 (or MK2) Kinase Assay
Assay type: biochemical
Conditions: activated MAPKAPK2, Hsp27 peptide substrate, 5 μM ATP, TR-FRET
Experimental: MAPKAPK2 (or MK2) Kinase Assay
MAPAPK2 is pre-activated in kinase buffer (25 mM TRIS-HCL, pH 7.5, 25 mM beta-glycerophosphate, 0.1 mM sodium orthovanadate, 25 mM MgCl2, 20 μM DTT) containing 5 μM ATP, 150 μg/ml human MK2 (HPLC purified in house), 30 μg/ml active human p38α (HPLC purified in house) for 30 min at 22° C. For the measurement of compound inhibition on activated MAPAPK2, each reaction contained test compound (10 μl; 0.5% DMSO final) or vehicle control, 250 nM Hsp27 peptide biotinyl-AYSRALSRQLSSGVSEIR—COOH as substrate (10 μl) and pre-activated MAPKAP2 kinase mix (10 μl) containing ATP (5 μM final). To define non-specific, reactions are performed in the absence of substrate. Following incubation at 22° C. for 45 min, kinase reactions are terminated with 125 μM EDTA (10 μl). Samples (10 μl) are transferred to black low volume 384-well plates (Greiner) prior to the detection of phosphorylated substrate by time-resolved fluorescence resonance energy transfer (TR-FRET). Phosphorylated Hsp27 is measured using an antibody mix (10 μl) containing a rabbit anti-phospho-Hsp27 (Ser^82) antibody (2.5 nM, Upstate) in conjunction with an anti-rabbit europium-labeled secondary antibody LANCE Eu-W1024 (2.5 nM; Perkin Elmer) as fluorescence donor along with streptavidin SureLight-APC (6.25 nM; Perkin Elmer) as a fluorescence acceptor. Following incubation at 22° C. for 90 min, plates are measured at 615 and 665 nm using a PHERAstar (BMG Labtech). The 615/665 nm ratio is determined following subtraction of background. Values are expressed as % inhibition using control values. Individual IC50 values of compounds are determined by nonlinear regression after fitting of curves to the experimental data using Excel XL fit 4.0 (Microsoft).
For a number of compounds being identified by their example No. the efficacy is disclosed as being assessable by the above described MK2 kinase assay: […]

T1 sequence (P49137 whole entry): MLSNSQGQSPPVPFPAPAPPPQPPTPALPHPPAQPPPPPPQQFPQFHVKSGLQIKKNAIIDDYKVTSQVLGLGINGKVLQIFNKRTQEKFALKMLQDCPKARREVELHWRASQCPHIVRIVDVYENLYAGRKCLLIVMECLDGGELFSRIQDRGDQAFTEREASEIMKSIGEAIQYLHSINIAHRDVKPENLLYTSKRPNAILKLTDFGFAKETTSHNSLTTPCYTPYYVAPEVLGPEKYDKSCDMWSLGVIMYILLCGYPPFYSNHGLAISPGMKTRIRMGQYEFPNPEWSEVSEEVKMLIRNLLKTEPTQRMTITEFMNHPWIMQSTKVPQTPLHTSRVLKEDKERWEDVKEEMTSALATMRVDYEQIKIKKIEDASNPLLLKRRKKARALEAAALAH

IC50 | SMILES
200 nM | NC(=O)c1cc(-c2ccnc(-c3ccc(N4CCN(Cc5ccccc5)CC4)nc3)c2)[nH]c1N1CCNCC1 [Example 116, 5-[6′-(4-Benzyl-piperazin-1-yl)-[2,3′]bipyridinyl-4-yl]-2-piperazin-1-yl-1H-pyrrole-3-carboxylic acid amide]
70 nM | N#Cc1cc(-c2ccnc(-c3cnc(N4CCCOCC4)nc3)c2)[nH]c1N1CCNCC1 [Example 118, 5-[2-(2-[1,4]Oxazepan-4-yl-pyrimidin-5-yl)-pyridin-4-yl]-2-piperazin-1-yl-1H-pyrrole-3-carbonitrile trifluoroacetate]
100 nM | NC(=O)c1cc(-c2ccnc(/C=C/c3ccc(CN4CCOCC4)cc3)c2)[nH]c1N1CCNCC1 [Example 72, 5-{2-[(E)-2-(4-Morpholin-4-ylmethyl-phenyl)-vinyl]-pyridin-4-yl}-2-piperazin-1-yl-1H-pyrrole-3-carboxylic acid amide hydrobromide]
130 nM | NC(=O)c1cc(-c2ccnc(/C=C/c3ccc(F)cc3)c2)[nH]c1N1CCNCC1 [Example 9, 5-{2-[(E)-2-(4-Fluoro-phenyl)-vinyl]-pyridin-4-yl}-2-piperazin-1-yl-1H-pyrrole-3-carboxylic acid amide]
80 nM | NCCc1[nH]c(-c2ccnc(/C=C/c3ccccc3)c2)cc1C(=O)O [Example 155, 2-(2-Amino-ethyl)-5-[2-((E)-styryl)-pyridin-4-yl]-1H-pyrrole-3-carboxylic acid]
150 nM | N#Cc1cc(-c2ccnc(/C=C/c3ccc(C(=O)N4CCOCC4)cc3)c2)[nH]c1N1CCNCC1 [Example 75, 5-(2-{(E)-2-[4-(Morpholine-4-carbonyl)-phenyl]-vinyl}-pyridin-4-yl)-2-piperazin-1-yl-1H-pyrrole-3-carbonitrile]
260 nM | NC(=O)c1cc(-c2ccnc(-c3ccc(C(=O)NC4CCCC4)cc3)c2)[nH]c1N1CCNCC1 [Example 55, 5-[2-(4-Cyclopentylcarbamoyl-phenyl)-pyridin-4-yl]-2-piperazin-1-yl-1H-pyrrole-3-carboxylic acid amide]
290 nM | Cc1[nH]c(-c2ccnc(/C=C/c3ccc(CN4CCOCC4)cc3)c2)cc1C#N [Example 131, 2-Methyl-5-{2-[(E)-2-(4-morpholin-4-ylmethyl-phenyl)-vinyl]-pyridin-4-yl}-1H-pyrrole-3-carbonitrile]
150 nM | N#Cc1cc(-c2ccnc(/C=C/c3ccccc3)c2)[nH]c1CCN [Example 148, 2-(2-Amino-ethyl)-5-[2-((E)-styryl)-pyridin-4-yl]-1H-pyrrole-3-carbonitrile]
50 nM | NC(=O)c1cc(-c2ccnc(-c3ccc(S(=O)(=O)N4CCOCC4)cc3)c2)[nH]c1N1CCNCC1 [Example 51, 5-{2-[4-(Morpholine-4-sulfonyl)-phenyl]-pyridin-4-yl}-2-piperazin-1-yl-1H-pyrrole-3-carboxylic acid amide]
140 nM | NC(=O)c1cc(-c2ccnc(/C=C/c3cccnc3)c2)[nH]c1N1CCNCC1 [Example 81, 2-Piperazin-1-yl-5-[2-((E)-2-pyridin-3-yl-vinyl)-pyridin-4-yl]-1H-pyrrole-3-carboxylic acid amide]
160 nM | NC(=O)c1cc(-c2ccnc(-c3ccc(N4CCCCC4)nc3)c2)[nH]c1N1CCNCC1 [Example 109, 2-Piperazin-1-yl-5-(3,4,5,6-tetrahydro-2H-[1,2′;5′,2″]terpyridin-4″-yl)-1H-pyrrole-3-carboxylic acid amide]
90 nM | NC(=O)c1cc(-c2ccnc(Nc3cccc(S(=O)(=O)N4CCOCC4)c3)c2)[nH]c1N1CCNCC1 [Example 93, 5-{2-[3-(Morpholine-4-sulfonyl)-phenylamino]-pyridin-4-yl}-2-piperazin-1-yl-1H-pyrrole-3-carboxylic acid amide]
150 nM | CN1CCN(c2ccc(-c3cc(-c4cc(C(N)=O)c(N5CCNCC5)[nH]4)ccn3)cn2)CC1 [Example 110, 5-[6′-(4-Methyl-piperazin-1-yl)-[2,3′]bipyridinyl-4-yl]-2-piperazin-1-yl-1H-pyrrole-3-carboxylic acid amide]
70 nM | CN1CCC(Oc2ccc(-c3cc(-c4cc(C#N)c(N5CCNCC5)[nH]4)ccn3)cn2)CC1 [Example 105, 5-[6′-(1-Methyl-piperidin-4-yloxy)-[2,3′]bipyridinyl-4-yl]-2-piperazin-1-yl-1H-pyrrole-3-carbonitrile trifluoroacetate]
120 nM | NC(=O)c1cc(-c2ccnc(/C=C/c3ccccc3)c2)[nH]c1N1CCNCC1 [Example 14, 2-Piperazin-1-yl-5-[2-((E)-styryl)-pyridin-4-yl]-1H-pyrrole-3-carboxylic acid amide]
210 nM | N#Cc1cc(-c2ccnc(/C=C/c3ccccc3)c2)[nH]c1C1CCNCC1 [Example 144, 2-Piperidin-4-yl-5-[2-((E)-styryl)-pyridin-4-yl]-1H-pyrrole-3-carbonitrile]

SMILES | IC50
NC(=O)c1cc(-c2ccnc(/C=C/c3ccccc3)c2)[nH]c1C1=CCNCC1 [Example 170, 5-[2-((E)-Styryl)-pyridin-4-yl]-2-(1,2,3,6-tetrahydro-pyridin-4-yl)-1H-pyrrole-3-carboxylic acid amide] | 270 nM
